Laboratory results reported in patent US10464901B2, “Composition including benzene diamine derivative for preventing or treating degenerative brain diseases” (UNIST(ULSAN NATIONAL INSTITUTE OF SCIENCE AND TECHNOLOGY), priority 2017, dated 2019).

Experiments:
Aβ40 and Aβ42 = test: Aβ aggregation inhibition in the presence or absence of metals, overall statements (FIG. 1); type: biochemical; details: two kinds of Aβ (Aβ40, Aβ42)
Source text: (§1) It was examined whether the benzene diamine derivatives of the present disclosure have inhibitory effects on Aβ aggregation. Aβ has two isoforms, and therefore, effects on Aβ40 and Aβ42 were examined, respectively. When metals are involved in protein folding, the probability of abnormal folding is high. In this case, the probability of Aβ aggregate formation is further increased.
(§2) In order to perform molecular analysis of Aβ aggregation-inhibitory effects of the benzene diamine derivatives of the present disclosure, gel electrophoresis and Western blotting were performed by using anti-Aβ antibody (6E10). As a control group, compound 1
(§3) In detail, each sample (10 μl) was separated on a 10-20% Tris-tricine gel (Invitrogen, Grand Island, N.Y., USA). After separation, the proteins were transferred onto a nitrocellulose membrane and blocked with bovine serum albumin (BSA, 3% w/v, Sigma-Aldrich, St Louis, Mo., USA) in Tris-buffered saline (TBS) containing 0.1% Tween-20 (TBS-T) at room temperature for 2 hours or at 4° C. overnight. The membrane was incubated in a 2% BSA (w/v in TBS-T) solution, together with anti-Aβ antibody (6E10, 1:2,000, Covance, Princeton, N.J., USA), at room temperature for 4 hours or at 4° C. overnight. The membrane was washed with TBS-T (3×, 10 min), and a secondary mouse antibody (1:5,000 in 2% BSA w/v in TBS-T; Cayman Chemical Company, Ann Arbor, Mich., USA) was added thereto, followed by incubation at room temperature for 1 hour. Thermo Scientific SuperSignal West Pico Chemiluminescent Substrate (Thermo Scientific, Rockford, Ill., USA), Biosesang ECL Plus kit (Biosesang, Gyeonggi-do, Republic of Korea), or homemade ECL kit53 were used for visualization, and ChemiDoc MP Imaging System (Bio-Rad, Hercules, Calif., USA) was used for detection.

[1] = test system: human neuroblastoma cell line SK-N-BE(2)-M17 (M17); test: Cytotoxicity-inhibitory effect, MTT cell viability with Aβ with or without metals; type: cell-based; details: M17 cells, irrespective of Aβ isoforms and metals, FIG. 4
Protocol: It was examined whether the benzene diamine derivatives of the present disclosure have cytotoxicity-inhibitory effect. Aβ aggregation and reactive oxygen species may cause cytotoxicity in neuronal cells, resulting in neuronal cell death.
In detail, human neuroblastoma cell line SK-N-BE(2)-M17 (M17) (ATCC, Manassa, Va., USA) was cultured in a 1:1 minimum essential medium (MEM; GIBCO, Grand Island, N.Y., USA), Ham's F12K Kaighn's Modification Media (F12K; GIBCO) supplemented with 10% (v/v) fetal bovine serum (FBS; Atlanta Biologicals, Flowery Branch, Ga., USA), 100 U/mL penicillin (GIBCO), and […] streptomycin (GIBCO). M17 cells were seeded in a 96-well plate (150,000 in 100 μl per well), and treated with various concentrations of the compound (0-50 μM, 1% v/v DMSO) in the presence or absence of CuCl2 or ZnCl2 (a metal/ligand ratio of 1:1 or 1:2), and in the presence or absence of Aβ 40 (Aβ:metal:compound=10:10:20 μM). After incubation at 37° C. for 24 hours, 25 μl of MTT (3-(4,5-dimethylthiazol-2-yl)-2,5-diphenyltetrazolium bromide) (5 mg/mL in PBS, pH 7.4) (GIBCO) was added to each well, and each plate was incubated at 37° C. for 4 hours. […] Absorbance at 600 nm was measured by using a microplate reader.

[2] = Antioxidant effect: free organic radical-scavenging activity (ABTS) using cell lysate; type: biochemical; details: Table 1 summary of Example 3; symbols not defined
Protocol: It was examined whether the benzene diamine derivatives of the present disclosure have an antioxidant effect. It is known that reactive oxygen species induces oxidative stress in neuronal cells to cause neuronal cell death and causes protein misfolding to induce formation of Aβ aggregates. Therefore, compounds having antioxidant effects may be candidates for preventing or treating dementia.
Free organic radical-scavenging activity of the compound was determined according to a protocol of Cayman Chemical Company (Ann Arbor, Mich., USA) with slight modifications. For antioxidant analysis using a cell lysate, cells were seeded in a 6-well plate, and cultured until they reached 80-90% confluence. A cell lysate was prepared according to a known method, washed with a cold phosphate buffer solution (PBS; pH 7.4, GIBCO), and then harvested. Cell pellet was produced by centrifugation (2,000 g, 4° C., 10 min). This pellet was sonicated (5 sec pulse, 20 sec interval, three times) in 2 ml of cold assay buffer S13 (5 mM potassium phosphate, pH 7.4; 0.9% NaCl; 0.1% glucose) on ice. A cell lysate was centrifuged at 4° C. for 10 minutes at 5,000 g. A supernatant was removed, and left on ice until use. To the cell lysate supernatant (10 μl), the compound, metmyoglobin, ABTS (2,2′-azino-bis-3-ethylbenzothiazoline-6-sulfonic acid), and hydrogen peroxide were sequentially added. The mixture was incubated on a shaker at room temperature for 5 minutes, and absorbance at 750 nm was measured. The compound at a final concentration of 45, 90, 135, 180, 225, or 330 μM and Trolox (6-hydroxy-2,5,7,8-tetramethyl-chroman-2-carboxylic acid, dissolved in EtOH) were used. Antioxidant activity was calculated according to the measured absorbance [% inhibition=100×(A0−A)/A0, A0 represents absorbance of the supernant of the cell lysate]. Each measurement was repeated in triplicate.

Metal-free Aβ = test: Aβ aggregation inhibition, gel electrophoresis and Western blotting with anti-Aβ antibody (6E10); type: biochemical; details: Table 1 summary of Example 2; symbols not defined
Source text: as §1, §2, §3

Cu(II)-Aβ = test: as above; type: biochemical; details: Table 1 summary of Example 2; symbols not defined
Source text: as §1, §2, §3

Zn(II)-Aβ = test: as above; type: biochemical; details: Table 1 summary of Example 2; symbols not defined
Source text: as §1, §2, §3

PAMPA-BBB analysis = type: in vitro ADME
Protocol: […] PAMPA-BBB analysis was performed by using a PAMPA Explorer kit (pION, Inc. Billerica, Mass., USA) according to the manufacture's protocol with slight modifications. […] The prepared solution was put in each well of a donor plate (200 μl, repeated 12 times). A polyvinylidene fluoride (PVDF, […]) filter membrane on an acceptor plate was coated with BBB-1 lipid formulation (5 μl, pION). The acceptor plate was placed on top of the donor plate to generate a “sandwich”. Brain sink buffer (BSB, 200 μl, pION) was added to each well of the acceptor plate. The sandwich-shaped plate was incubated for 4 hours at room temperature without stirring. UV-vis spectra of the solutions in the reference, acceptor, and donor plates were measured using a microplate reader. A PAMPA Explorer software [v. 3.8 (pION)] was used to calculate the −log Pe values for compounds. CNS±designations were assigned by comparison with compounds that were identified in previous reports.

Row | Compound | inhibitory effect on Aβ aggregation (Aβ40 and Aβ42) | effect in cytotoxicity-inhibition test (worded result) [1] | Reactive oxygen species (antioxidant effect) [2] | Metal-free Aβ (inhibitory effect on Aβ aggregation) (Metal-free Aβ) | Cu(II)-Aβ (inhibitory effect on Aβ aggregation) (Cu(II)-Aβ) | Zn(II)-Aβ (inhibitory effect on Aβ aggregation) (Zn(II)-Aβ) | PAMPA-BBB permeability class (PAMPA-BBB analysis; 50 μM, incubation 4 hrs, U.V) | Papp at 4 h, 50 μM (PAMPA-BBB analysis; PAMPA, pH 7.4, 50 μM, incubation 4 hrs, U.V, read-out: Pe) [nm/s] | CNS± designation (PAMPA-BBB analysis; assigned by comparison with compounds identified in previous reports)
1 | c1ccc(NCc2ccccn2)cc1 [Compound 1, reference compound] | did not show inhibitory effect on Aβ aggregation under any conditions | did not show excellent Aβ aggregation-inhibitory effect | No effect | – | – | – | – | – | –
2 | Nc1ccc(NCc2ccc(F)cn2)cc1 [Compound 3, N^1-((5-fluoropyridin-2-yl)methyl)benzene-1,4-diamine] | showed inhibitory effect on both two kinds of Aβ, irrespective of the kind and presence of metals | – | ◯ | ◯ | ◯ | ◯ | – | – | –
3 | CN(C)c1ccc(NCc2nccn2C)cc1 [Compound 4, N^1,N^1-dimethyl-N^4-((1-methyl-1H-imidazol-2-yl)methyl)benzene-1,4-diamine] | showed inhibitory effect on Aβ with metals | – | ◯ | – | ◯ | ◯ | – | – | –
4 | CN(C)c1ccc(NCCS)cc1 [Compound 5, 2-((4-(dimethylamino)phenyl)amino)ethane-1-thiol] | showed inhibitory effect on both two kinds of Aβ, irrespective of the kind and presence of metals | – | ◯ | ◯ | ◯ | ◯ | – | – | –
5 | CC(=O)[C@H]1CC[C@H]2[C@@H]3CCC4=CC(=O)CC[C@]4(C)[C@H]3CC[C@]12C [Progesterone, reference compound] | – | – | – | – | – | – | High | 467 | (CNS+)
